Peptide text beside a SMILES is read from it.
What was measured:
mushroom tyrosinase = settings: cited from earlier work
human tyrosinase = molecular target: T1, human tyrosinase (Homo sapiens, UniProt P14679); settings: cited from earlier work
T1 sequence (P14679 19-529): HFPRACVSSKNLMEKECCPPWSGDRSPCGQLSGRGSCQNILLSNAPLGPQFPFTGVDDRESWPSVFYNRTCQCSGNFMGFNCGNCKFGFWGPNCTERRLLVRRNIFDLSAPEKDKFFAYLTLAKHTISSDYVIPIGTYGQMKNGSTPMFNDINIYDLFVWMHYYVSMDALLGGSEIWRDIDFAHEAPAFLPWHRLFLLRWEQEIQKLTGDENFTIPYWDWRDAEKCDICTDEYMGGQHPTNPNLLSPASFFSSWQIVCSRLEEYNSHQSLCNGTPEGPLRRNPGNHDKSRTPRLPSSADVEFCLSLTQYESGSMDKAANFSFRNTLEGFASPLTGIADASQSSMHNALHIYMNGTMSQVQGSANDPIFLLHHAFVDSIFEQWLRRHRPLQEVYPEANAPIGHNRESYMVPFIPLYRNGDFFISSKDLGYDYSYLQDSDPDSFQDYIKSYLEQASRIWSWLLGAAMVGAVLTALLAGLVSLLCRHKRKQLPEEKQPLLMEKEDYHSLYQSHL

[1] = assay type: in vitro ADME
Source text: Human dermatomed skin was obtained from Science Care (Arizona, USA). The skin tissues were excised from the thighs of two male cadavers with age at death of 66 and 57. The skin samples used in the study were without identifier and exempted from ethical review. The Integrity of cadaver skin was checked using visual inspection before use to ensure no pores or breaks in the skin surface were present. In addition, any compromise in skin integrity was identified through observation of a rapid and large increase in the amount of permeated peptide through the skin at the first sampling time point.
Franz type diffusion cells were used. Human epidermis was mounted between donor and receptor compartments and excessive skin at the sides was trimmed off to minimize lateral diffusion. SC was faced towards the donor compartment and the skin area for permeation was 1.327 square centimeters. The receptor compartment was filled with 5.5 milliliters of 1 millimolar PBS solution containing 1 percent (volume/volume) antibacterial antimycotic solution. Receptor solution was filtered twice to prevent formation of air bubbles beneath the epidermis. […] Permeation was measured over 24 hours.
The amount of peptide permeated was determined using Shimadzu CBM-20A HPLC system with Agilent ODS C18 column (4.6 millimeters x 250 millimeters x 5 microns, 170 Angstroms). […]

melasma = settings: cited from earlier work

N=C(N)NCCC[C@H](NC(=O)[C@H](CO)NC(=O)[C@H](CCCNC(=N)N)NC(=O)[C@@H](N)Cc1ccc(O)cc1)C(=O)N[C@@H](CCCCN)C(=O)N[C@@H](Cc1ccc(O)cc1)C(=O)N[C@@H](CO)C(=O)N[C@@H](CO)C(=O)N[C@@H](Cc1c[nH]c2ccccc12)C(=O)N[C@@H](Cc1ccc(O)cc1)C(=O)O [Native peptide, decapeptide-12] (H-YRSRKYSSWY-OH)
Competitive inhibition effect compared with hydroquinone (mushroom tyrosinase): stronger competitive inhibition effect | Competitive inhibition effect compared with hydroquinone (human tyrosinase): stronger competitive inhibition effect | Effect of enhancers on skin permeation [1]: didn't alter skin permeation | Efficacy in reducing content of melanin (melasma; 16 weeks of twice daily treatment): more than 50% | Safety compared with hydroquinone (melasma; in vivo): safer than hydroquinone | Effect in treatment of melasma (melasma; studies on humans, topical): good efficacy
